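Assay format: 96-well plates, 48-hour exposure. Abbreviation: GI50, concentration required for 50% inhibition of growth.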 Activity calls are given as the source filed them. Cut-off read from the data, not from the text of the source: active = GI50 up to about 1.1 µM and inactive = higher.
Experiments:
Assay in all cases: NCI anticancer screen, dose series, 48 h
[1] = system: 786-0
[2] = system: A498
[3] = system: A549
[4] = system: ACHN
[5] = system: BT-549
[6] = system: CAKI-1
[7] = system: CCRF-CEM
[8] = system: COLO 205
[9] = system: DU-145
[10] = system: EKVX
[11] = system: HCT-116
[12] = system: HCT-15
[13] = system: HL-60
[14] = system: HOP-62
[15] = system: HOP-92
[16] = system: HT-29
[17] = system: Hs-578T
[18] = system: IGROV-1
[19] = system: K562
[20] = system: KM12
[21] = system: LOX IMVI
[22] = system: M14
[23] = system: MCF7
[24] = system: MDA-MB-435
[25] = system: MDA-N
[26] = system: MOLT-4
[27] = system: Malme-3M
[28] = system: NCI-H226
[29] = system: NCI-H23
[30] = system: NCI-H460
[31] = system: NCI-H522
[32] = system: NCI/ADR-RES
[33] = system: OVCAR-3
[34] = system: OVCAR-4
[35] = system: OVCAR-5
[36] = system: OVCAR-8
[37] = system: PC-3
[38] = system: RPMI-8226
[39] = system: RXF 393
[40] = system: SF-268
[41] = system: SF-295
[42] = system: SF-539
[43] = system: SK-MEL-2
[44] = system: SK-MEL-5
[45] = system: SK-OV-3
[46] = system: SN12C
[47] = system: SNB-19
[48] = system: SNB-75
[49] = system: SW-620
[50] = system: T47D
[51] = system: TK-10
[52] = system: U-251
[53] = system: UACC-257
[54] = system: UACC-62
[55] = system: UO-31

CCOC(=O)CCC(C(=O)OCC)n1nnc2cc(Nc3c(C)[n+]([O-])c4cc(Cl)ccc4[n+]3[O-])ccc21 (stereo not given)
GI50 [1]: 59.2 µM (inactive) | GI50 [2]: > 100 µM (inactive) | GI50 [3]: > 100 µM (inactive) | GI50 [4]: 46.2 µM (inactive) | GI50 [5]: > 100 µM (inactive) | GI50 [6]: 93.3 µM (inactive) | GI50 [7]: 35.6 µM (inactive) | GI50 [8]: 41.7 µM (inactive) | GI50 [9]: > 100 µM (inactive) | GI50 [10]: 14.2 µM (inactive) | GI50 [11]: 47.9 µM (inactive) | GI50 [12]: 43.9 µM | GI50 [13]: 41.3 µM (inactive) | GI50 [14]: 46.8 µM (inactive) | GI50 [15]: 67.9 µM (inactive) | GI50 [16]: 76 µM (inactive) | GI50 [17]: > 100 µM (inactive) | GI50 [18]: > 100 µM (inactive) | GI50 [19]: 59.2 µM (inactive) | GI50 [20]: > 100 µM (inactive) | GI50 [21]: 69.2 µM (inactive) | GI50 [22]: 44.6 µM (inactive) | GI50 [23]: 28.2 µM (inactive) | GI50 [24]: > 100 µM (inactive) | GI50 [25]: > 100 µM (inactive) | GI50 [26]: 49.1 µM (inactive) | GI50 [27]: > 100 µM (inactive) | GI50 [28]: 32.9 µM (inactive) | GI50 [29]: 60.5 µM (inactive) | GI50 [30]: 48.3 µM (inactive) | GI50 [31]: > 100 µM (inactive) | GI50 [32]: 35.1 µM (inactive) | GI50 [33]: 40.2 µM (inactive) | GI50 [34]: 77.4 µM (inactive) | GI50 [35]: 62.8 µM (inactive) | GI50 [36]: > 100 µM (inactive) | GI50 [37]: > 100 µM (inactive) | GI50 [38]: 37.2 µM (inactive) | GI50 [39]: 53.6 µM (inactive) | GI50 [40]: 38.4 µM (inactive) | GI50 [41]: 68.5 µM (inactive) | GI50 [42]: 95.5 µM (inactive) | GI50 [43]: 77.8 µM (inactive) | GI50 [44]: 49.8 µM (inactive) | GI50 [45]: > 100 µM (inactive) | GI50 [46]: 96.6 µM (inactive) | GI50 [47]: > 100 µM (inactive) | GI50 [48]: 89.3 µM (inactive) | GI50 [49]: 88.7 µM (inactive) | GI50 [50]: 47.2 µM (inactive) | GI50 [51]: > 100 µM (inactive) | GI50 [52]: 80.4 µM (inactive) | GI50 [53]: 40.1 µM (inactive) | GI50 [54]: 55.7 µM (inactive) | GI50 [55]: 72.6 µM (inactive)

From ChEMBL document CHEMBL1201862, “PubChem BioAssay data set” (2004)
